The target in test [1] is Rat recombinant PDE10a (rPDE10a) (Rattus norvegicus (Rat), UniProt Q9QYJ6). The test can be described thus: In vitro assay PDE10a: rat recombinant PDE10a SPA with 3H-cAMP substrate, IC50. The settings on record: 60 nM cAMP, read-out: rPDE10a2 IC50. Type of test: biochemical. As for the experimental part: In Vitro Assay PDE10a Rat recombinant PDE10a (rPDE10a) was expressed in Sf9 cells using a recombinant rPDE10a baculovirus construct. Cells were harvested after 48 h of infection and the rPDE10a protein was purified by metal chelate chromatography on Ni-sepharose 6FF. Tested compounds were dissolved and diluted in 100% DMSO to a concentration 100 fold of the final concentration in the assay. […] The reaction was incubated for 60 min at rt. After incubation, the reaction was stopped with 20 μL of 17.8 mg/mL PDE SPA beads. […] For blank values the enzyme was omitted from the reaction and replaced by incubation buffer.
Sequence of Rat recombinant PDE10a (rPDE10a) (Q9QYJ6 whole entry): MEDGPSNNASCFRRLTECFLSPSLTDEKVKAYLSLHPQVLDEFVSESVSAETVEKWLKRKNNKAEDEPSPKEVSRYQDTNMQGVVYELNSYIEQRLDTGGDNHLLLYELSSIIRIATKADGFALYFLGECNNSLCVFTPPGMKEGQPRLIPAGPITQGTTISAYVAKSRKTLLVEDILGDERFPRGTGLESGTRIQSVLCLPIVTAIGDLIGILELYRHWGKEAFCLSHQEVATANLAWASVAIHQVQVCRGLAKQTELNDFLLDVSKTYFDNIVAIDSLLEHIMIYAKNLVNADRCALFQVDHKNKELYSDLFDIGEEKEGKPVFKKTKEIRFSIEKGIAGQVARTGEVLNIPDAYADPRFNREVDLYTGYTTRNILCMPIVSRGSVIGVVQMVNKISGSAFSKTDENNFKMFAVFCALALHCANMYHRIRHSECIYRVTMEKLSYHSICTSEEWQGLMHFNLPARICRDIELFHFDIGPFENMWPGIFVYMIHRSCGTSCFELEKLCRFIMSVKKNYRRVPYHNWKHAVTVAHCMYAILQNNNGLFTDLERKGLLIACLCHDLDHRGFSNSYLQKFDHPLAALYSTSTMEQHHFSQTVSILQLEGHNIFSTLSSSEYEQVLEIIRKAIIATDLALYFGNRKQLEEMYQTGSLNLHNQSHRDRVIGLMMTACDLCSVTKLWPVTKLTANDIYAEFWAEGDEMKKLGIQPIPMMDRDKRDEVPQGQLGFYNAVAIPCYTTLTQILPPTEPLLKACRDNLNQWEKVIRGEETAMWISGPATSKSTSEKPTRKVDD

In test [2] the target is Human recombinant PDE10A2 (Homo sapiens (Human), UniProt Q9Y233). Nature of the test: In vitro hPDE10a: human recombinant PDE10A2 scintillation proximity assay, IC50. Type of test: biochemical. The settings on record: human recombinant PDE10A2, SPA, 60 nM cAMP; read-out: hPDE10a2 IC50. As for the experimental part: Cells were harvested and the phosphodiesterase protein was purified by metal chelate chromatography on Ni-sepharose 6FF. The affinity of the compounds of Formula (I) for phophodiesterases (PDE) was measured by a scintillation proximity assay (SPA). PDE Yttrium Silicate SPA beads allow PDE activity to be measured by direct binding of the primary phosphate groups of non-cyclic AMP or GMP to the beads via a complex iron chelation mechanism. The amount of bound tritiated product ([^3H]-AMP) is measured by liquid scintillation counting. The compounds were dissolved and diluted in 100% DMSO in polystyrene plates to a concentration of 100-fold the final concentration in the assay. […] After incubation, the reaction was stopped with 20 μL of stop solution, consisting of PDE SPA beads (17.8 mg beads/mL in 18 mM zinc sulphate). […] To measure the low control, no enzyme was added to the reaction mixture. Data were calculated as the percentage of inhibition of total activity measured in the absence of test compound (% control). […] For compounds tested more than once, the data points were aggregated.
Sequence of Human recombinant PDE10A2 (Q9Y233 267-1055): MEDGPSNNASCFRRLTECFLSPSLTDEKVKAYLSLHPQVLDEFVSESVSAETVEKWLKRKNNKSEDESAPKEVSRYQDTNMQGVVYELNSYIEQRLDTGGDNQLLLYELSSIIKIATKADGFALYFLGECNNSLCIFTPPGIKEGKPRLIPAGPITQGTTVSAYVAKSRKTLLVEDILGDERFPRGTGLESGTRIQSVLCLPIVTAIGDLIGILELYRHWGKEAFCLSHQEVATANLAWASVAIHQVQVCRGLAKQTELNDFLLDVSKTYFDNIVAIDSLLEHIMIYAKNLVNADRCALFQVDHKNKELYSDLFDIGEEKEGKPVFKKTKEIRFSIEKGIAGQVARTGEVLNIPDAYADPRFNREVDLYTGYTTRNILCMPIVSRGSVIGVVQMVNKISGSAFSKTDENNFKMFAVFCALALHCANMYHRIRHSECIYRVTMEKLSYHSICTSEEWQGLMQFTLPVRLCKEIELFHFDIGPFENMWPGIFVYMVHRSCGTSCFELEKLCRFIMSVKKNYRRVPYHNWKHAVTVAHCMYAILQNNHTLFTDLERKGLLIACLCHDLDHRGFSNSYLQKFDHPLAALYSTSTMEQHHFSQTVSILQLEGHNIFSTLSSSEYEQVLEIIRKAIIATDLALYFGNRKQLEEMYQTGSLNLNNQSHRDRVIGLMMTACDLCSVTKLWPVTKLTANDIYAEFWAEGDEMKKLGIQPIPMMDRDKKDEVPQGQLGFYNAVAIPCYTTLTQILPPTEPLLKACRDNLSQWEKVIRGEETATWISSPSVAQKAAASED
On the technique in general: In a scintillation proximity assay essentially only radioactivity close to the scintillant gives light.

Counter-ions that a name gives are not always drawn. A value given as a limit tells only on which side of the number the result lay.

For orientation: IC50 means the midpoint of a concentration-inhibition curve. On to `O=C1NC(=O)C(c2ccc(-c3c(CCc4ccc5ccccc5n4)nc4c(N5CCOCC5)ccnn34)cc2)O1` (stereo not shown) [Cpd 70, 5-(4-(8-Morpholino-2-(2-(quinolin-2-yl)ethyl)imidazo[1,2-b]pyridazin-3-yl)phenyl)oxazolidine-2,4-dione], for which the values for the half-maximal inhibitory concentration (IC50) in test [1] and in test [2] were 7 nM and 4 nM, respectively.
Taken in the same sequence, the figures for `O=C(O)c1cc2ccccc2nc1/C=C/c1cn2nccc(N3CCOCC3)c2n1` [Cpd 144, 2-[(E)-2-(8-Morpholin-4-ylimidazo[1,2-b]pyridazin-2-yl)ethenyl]quinoline-3-carboxylic acid] were under 1 nM and under 1 nM.
For the compound `c1ccc2nc(CNc3nc4c(N5CCOCC5)ccnn4c3-c3ccc(N4CCNCC4)nc3)ccc2c1` [Cpd 11, 8-Morpholino-3-(6-(piperazin-1-yl)pyridin-3-yl)-N-(quinolin-2-ylmethyl)imidazo[1,2-b]pyridazin-2-amine trifluoroacetic acid salt], the IC50 was 25 nM in test [1] and 55 nM in test [2].
Regarding `O=C(O)c1ccc2ccc(/C=C/c3cn4nc(Cl)cc(N5CCOCC5)c4n3)nc2c1` [Cpd 94, 2-[(E)-2-(6-Chloro-8-morpholin-4-ylimidazo[1,2-b]pyridazin-2-yl)ethenyl]quinoline-7-carboxylic acid], the concentration for half-maximal inhibition (IC50) in test [1] amounted to 82 nM; in test [2], 53 nM.
Take `COc1cc2ccccc2nc1/C=C/c1nc2c(N3CCOCC3)ccnn2c1-c1ccc(C(=O)O)cc1` [Cpd 119, (E)-4-(2-(2-(3-Methoxyquinolin-2-yl)vinyl)-8-morpholinoimidazo[1,2-b]pyridazin-3-yl)benzoic acid]: the half-inhibitory concentration (IC50) in test [1] and in test [2] was 6 nM in each case.
As for `O=C(O)c1ccc(-c2c(/C=C/c3ccc4ccccc4n3)nc3c(N4CCOCC4)ccnn23)cn1` [compound 92, (E)-5-(8-Morpholino-2-(2-(quinolin-2-yl)vinyl)imidazo[1,2-b]pyridazin-3-yl)picolinic acid], the IC50 was found to be 5 nM in test [1] and 4 nM in test [2].
As to `O=C(O)c1ccc(-c2c(CCc3ccc4c(n3)CCCC4)nc3c(N4CCOCC4)ccnn23)cc1` [Cpd 79, 4-(8-Morpholino-2-(2-(5,6,7,8-tetrahydroquinolin-2-yl)ethyl)imidazo[1,2-b]pyridazin-3-yl)benzoic acid trifluoroacetic acid salt], the figures for the IC50 in test [1] and in test [2] were 8 nM and 3 nM, respectively.
For the compound `COc1ccc(C#Cc2nc3c(N4CCOCC4)ccnn3c2-c2ccc(C(=O)O)cc2)nc1` [Cpd 110, 4-(2-((5-Methoxypyridin-2-yl)ethynyl)-8-morpholinoimidazo[1,2-b]pyridazin-3-yl)benzoic acid], the IC50 in test [1] and in test [2] was 2 nM each time.
Consider `O=C(O)c1ccc(-c2c(/C=C/c3ccc4ccccc4n3)nc3c(N4CCOCC4)ccnn23)o1` [Cpd 58], for which the results for the IC50 in test [1] and in test [2] were 4 nM and 2 nM, respectively.
In the case of `O=C(O)c1ccc(-c2c(C#Cc3ccc4ccccc4n3)nc3c(N4CCOCC4)ccnn23)cc1` [Cpd 77, 4-(8-Morpholino-2-(quinolin-2-ylethynyl)imidazo[1,2-b]pyridazin-3-yl)benzoic acid], the IC50 in test [1] and in test [2] was under 1 nM each time.
For the compound `Cn1nc(-c2ccc(-c3c(CCc4ccc5ccccc5n4)nc4c(N5CCOCC5)ccnn34)cc2)[nH]c1=O` [Cpd 78, 1-Methyl-3-[4-[8-(morpholin-4-yl)-2-[2-(quinolin-2-yl)ethyl]imidazo[1,2-b]pyridazin-3-yl]phenyl]-4,5-dihydro-1H-1,2,4-triazol-5-one], the 50% inhibitory concentration (IC50) in test [1] is 20 nM; in test [2] it was 15 nM.
For the compound `O=C(O)CNC(=O)c1ccc(-c2c(/C=C/c3ccc4ccccc4n3)nc3c(N4CCOCC4)ccnn23)cc1` [Cpd 66, (E)-2-(4-(8-Morpholino-2-(2-(quinolin-2-yl)vinyl)imidazo[1,2-b]pyridazin-3-yl)benzamido)acetic acid], the concentration for half-maximal inhibition (IC50) in test [1] is 5 nM; in test [2] it was 9 nM.
For the compound `O=c1ncn(-c2ccc(-c3c(CCc4ccc5ccccc5n4)nc4c(N5CCOCC5)ccnn34)cc2)[nH]1` [Cpd 59, 1-(4-(8-Morpholino-2-(2-(quinolin-2-yl)ethyl)imidazo[1,2-b]pyridazin-3-yl)phenyl)-1,2-dihydro-1,2,4-triazol-3-one trifluoroacetic acid salt], the IC50 in test [1] stood at 6 nM; in test [2] it was 5 nM.
The like results for `NS(=O)(=O)c1ccc(-c2c(CCc3ccc4ccccc4n3)nc3c(N4CCOCC4)ccnn23)cc1` [compound 38, 4-(8-Morpholino-2-(2-(quinolin-2-yl)ethyl)imidazo[1,2-b]pyridazin-3-yl)benzenesulfonamide] were, in that order, 4 nM and 7 nM.
As for `O=C(O)C1CCN(c2c(/C=C/c3ccc4ccccc4n3)nc3c(N4CCOCC4)ccnn23)CC1` [Cpd 131, (E)-1-(8-Morpholino-2-(2-(quinolin-2-yl)vinyl)imidazo[1,2-b]pyridazin-3-yl)piperidine-4-carboxylic acid trifluoroacetic acid salt], the figures for the IC50 in test [1] and in test [2] were 5 nM and 7 nM, respectively.
Take `Clc1cc(N2CCOCC2)c2nc([C@H]3C[C@H](c4ccc5ccccc5n4)C3)cn2n1` [Cpd 130, 2-[trans-3-(6-Chloro-8-morpholin-4-ylimidazo[1,2-b]pyridazin-2-yl)cyclobutyl]quinoline]: the IC50 in test [1] turned out to be 30 nM; in test [2], 19 nM.
Taken in the same sequence, the figures for `O=C(Nc1ccc2ccccc2n1)c1nc2c(N3CCOCC3)ccnn2c1-c1ccc(N2CCNCC2)nc1` [Cpd 3, 8-Morpholino-3-(6-(piperazin-1-yl)pyridin-3-yl)-N-(quinolin-2-yl)imidazo[1,2-b]pyridazine-2-carboxamide trifluoroacetic acid salt] were 676 nM and 759 nM.
Taken in the same sequence, the figures for `Oc1c(F)cc(-c2c(CCc3ccc4ccccc4n3)nc3c(N4CCOCC4)ccnn23)cc1F` [compound 81, 2,6-Difluoro-4-(8-morpholino-2-(2-(quinolin-2-yl)ethyl)imidazo[1,2-b]pyridazin-3-yl)phenol] were 4 nM and 1 nM.
With `Cc1ccc(-c2c(COc3ccc4ccccc4n3)nc3c(N4CCOCC4)ccnn23)cn1` [Cpd 1, 4-(3-(6-methylpyridin-3-yl)-2-((quinolin-2-yloxy)methyl)imidazo[1,2-b]pyridazin-8-yl)morpholine methane sulfonic acid], the half-maximal inhibitory concentration (IC50) in test [1] was 46 nM; in test [2], 115 nM.
For `C(#Cc1cn2nccc(N3CCOCC3)c2n1)c1ccc2ccccc2n1` [Cpd 84, 2-[(8-Morpholin-4-ylimidazo[1,2-b]pyridazin-2-yl)ethynyl]quinoline], the half-maximal inhibitory concentration (IC50) in test [1] and in test [2] was under 1 nM throughout.
`CS(=O)(=O)NC(=O)Nc1ccc(-c2c(CCc3ccc4ccccc4n3)nc3c(N4CCOCC4)ccnn23)cc1` [Cpd 51, N-({4-[8-Morpholin-4-yl-2-(2-quinolin-2-ylethyl)imidazo[1,2-b]pyridazin-3-yl]phenyl}carbamoyl)methanesulfonamide]: the half-inhibitory concentration (IC50) in test [1] is 4 nM; in test [2], 6 nM.
Take `CS(=O)(=O)NC(=O)c1cccc2nc(/C=C/c3nc4c(N5CCOCC5)ccnn4c3-c3ccccn3)ccc12` [Cpd 145, (E)-N-(Methylsulfonyl)-2-(2-(8-morpholino-3-(pyridin-2-yl)imidazo[1,2-b]pyridazin-2-yl)vinyl)quinoline-5-carboxamide]: the figures for the IC50 in test [1] and in test [2] were 2 nM and 4 nM, respectively.
In the case of `CCN(CC)c1ccc(-c2c(COc3ccc4ccccc4n3)nc3c(N4CCOCC4)ccnn23)cn1` [Cpd 7, N,N-diethyl-5-(8-morpholino-2-((quinolin-2-yloxy)methyl)imidazo[1,2-b]pyridazin-3-yl)pyridin-2-amine methane sulfonic acid], the 50% inhibitory concentration (IC50) in test [1] stood at 447 nM; in test [2], 692 nM.
For the compound `CS(=O)(=O)NC(=O)c1cccc2nc(/C=C/c3cn4nc(Cl)cc(N5CCOCC5)c4n3)ccc12` [Cpd 104, 2-[(E)-2-(6-Chloro-8-morpholin-4-ylimidazo[1,2-b]pyridazin-2-yl)ethenyl]-N-(methylsulfonyl)quinoline-5-carboxamide], the IC50 was 8 nM in test [1] and 3 nM in test [2].
For the compound `O=C(O)C1CCC(Nc2c(/C=C/c3ccc4ccccc4n3)nc3c(N4CCOCC4)ccnn23)CC1` (stereo not shown) [Cpd 152, (E)-4-((8-Morpholino-2-(2-(quinolin-2-yl)vinyl)imidazo[1,2-b]pyridazin-3-yl)amino)cyclohexanecarboxylic acid], the figures for the IC50 in test [1] and in test [2] were 15 nM and 7 nM, respectively.
As for `CC(C)[C@H](NC(=O)c1ccc(-c2c(CCc3ccc4ccccc4n3)nc3c(N4CCOCC4)ccnn23)cc1)C(=O)O` [Cpd 75, N-({4-[8-Morpholin-4-yl-2-(2-quinolin-2-ylethyl)imidazo[1,2-b]pyridazin-3-yl]phenyl}carbonyl)-L-valine], the concentration for half-maximal inhibition (IC50) in test [1] amounted to 7 nM; in test [2] it was 4 nM.
